Source: PubChem BioAssay AID1259407 (Chemical Carcinogenesis Research Information System (CCRIS), 2018)
The source made the active and inactive calls. The rule behind the calls is not given here.

System: CCRIS mutagenicity, Ames/micronucleus/aberration tests
Experiment: CCRIS mutagenicity studies

Question: With `O=Cc1ccccc1` as the compound, how does the mutagenic call (End Point: IN VITRO CHROMOSOMAL ABERRATIONS, Test System: CHINESE HAMSTER OVARY CELLS, Metabolic Activation: NONE) read?
Answer: inactive; negative

Question: And the mutagenic call (End Point: IN VITRO CHROMOSOMAL ABERRATIONS, Test System: CHINESE HAMSTER OVARY CELLS, Metabolic Activation: RAT, LIVER, S-9, AROCLOR 1254)?
Answer: inactive; negative

Question: What about the mutagenic call (End Point: In vitro chromosomal aberrations, Test System: Chinese hamster lung (CHL/IU) cells, Metabolic Activation: Rat, Liver, S9, Phenobarbital and 5,6-benzoflavone) of the same compound?
Answer: inactive; negative. weak positive response for ploidy is not dose related.

Question: And the mutagenic call (Test System: AMES SALMONELLA TYPHIMURIUM, Strain/Indicator: TA97, Metabolic Activation: NONE, Method: PREINCUBATION)?
Answer: inactive; negative

Question: And the mutagenic call (Test System: AMES SALMONELLA TYPHIMURIUM, Strain/Indicator: TA97, Metabolic Activation: RAT, LIVER, S-9, AROCLOR 1254, Method: PREINCUBATION)?
Answer: inactive; negative

Question: What about the mutagenic call (Test System: AMES SALMONELLA TYPHIMURIUM, Strain/Indicator: TA98, Metabolic Activation: HAMSTER, LIVER, S-9, AROCLOR 1254 (10%), Method: PREINCUBATION) of the same compound?
Answer: inactive; negative

Question: And the mutagenic call (Test System: AMES SALMONELLA TYPHIMURIUM, Strain/Indicator: TA98, Metabolic Activation: NONE, Method: FLUCTUATION (MICROTITER))?
Answer: inactive; negative

Question: And the mutagenic call (Test System: AMES SALMONELLA TYPHIMURIUM, Strain/Indicator: TA98, Metabolic Activation: NONE, Method: PREINCUBATION)?
Answer: inactive; negative

Question: What about the mutagenic call (Test System: AMES SALMONELLA TYPHIMURIUM, Strain/Indicator: TA98, Metabolic Activation: RAT LIVER S-9, AROCLOR 1254, Method: FLUCTUATION (MICROTITER)) of the same compound?
Answer: inactive; negative

Question: And the mutagenic call (Test System: AMES SALMONELLA TYPHIMURIUM, Strain/Indicator: TA98, Metabolic Activation: RAT LIVER S-9, PHENOBARBITAL AND BETA-NAPHTHOFLAVONE, Method: PREINCUBATION)?
Answer: inactive; negative

Question: And the mutagenic call (Test System: AMES SALMONELLA TYPHIMURIUM, Strain/Indicator: TA98, Metabolic Activation: RAT, LIVER, S-9, AROCLOR 1254 (10%), Method: PREINCUBATION)?
Answer: inactive; negative

Question: What about the mutagenic call (Test System: AMES SALMONELLA TYPHIMURIUM, Strain/Indicator: TA100, Metabolic Activation: HAMSTER, LIVER, S-9, AROCLOR 1254 (10%), Method: PREINCUBATION) of the same compound?
Answer: inactive; negative

Question: And the mutagenic call (Test System: AMES SALMONELLA TYPHIMURIUM, Strain/Indicator: TA100, Metabolic Activation: MOUSE, LIVER, S-9, AROCLOR 1254 (10%), Method: PREINCUBATION)?
Answer: inactive; negative

Question: And the mutagenic call (Test System: AMES SALMONELLA TYPHIMURIUM, Strain/Indicator: TA100, Metabolic Activation: RAT LIVER S-9, AROCLOR 1254, Method: PREINCUBATION)?
Answer: inactive; negative

Question: What about the mutagenic call (Test System: AMES SALMONELLA TYPHIMURIUM, Strain/Indicator: TA100, Metabolic Activation: RAT LIVER S-9, PHENOBARBITAL AND BETA-NAPHTHOFLAVONE, Method: PREINCUBATION) of the same compound?
Answer: inactive; negative

Question: What about the mutagenic call (Test System: AMES SALMONELLA TYPHIMURIUM, Strain/Indicator: TA100, Metabolic Activation: RAT, LIVER, S-9, AROCLOR 1254 (10%), Method: PREINCUBATION) of the same compound?
Answer: inactive; negative

Question: What about the mutagenic call (Test System: AMES SALMONELLA TYPHIMURIUM, Strain/Indicator: TA102, Metabolic Activation: MOUSE, LIVER, S-9, AROCLOR 1254 (10%), Method: PREINCUBATION) of the same compound?
Answer: inactive; negative

Question: What about the mutagenic call (Test System: AMES SALMONELLA TYPHIMURIUM, Strain/Indicator: TA102, Metabolic Activation: NONE, Method: PREINCUBATION) of the same compound?
Answer: inactive; negative

Question: And the mutagenic call (Test System: AMES SALMONELLA TYPHIMURIUM, Strain/Indicator: TA102, Metabolic Activation: RAT LIVER S-9, AROCLOR 1254, Method: PREINCUBATION)?
Answer: inactive; negative

Question: What about the mutagenic call (Test System: AMES SALMONELLA TYPHIMURIUM, Strain/Indicator: TA102, Metabolic Activation: RAT, LIVER, S-9, AROCLOR 1254 (10%), Method: PREINCUBATION) of the same compound?
Answer: inactive; negative

Question: What about the mutagenic call (Test System: AMES SALMONELLA TYPHIMURIUM, Strain/Indicator: TA102, Metabolic Activation: RAT, LIVER, S-9, AROCLOR 1254, Method: PREINCUBATION) of the same compound?
Answer: inactive; negative

Question: What about the mutagenic call (Test System: AMES SALMONELLA TYPHIMURIUM, Strain/Indicator: TA104, Metabolic Activation: MOUSE, LIVER, S-9, AROCLOR 1254 (10%), Method: PREINCUBATION) of the same compound?
Answer: inactive; negative

Question: And the mutagenic call (Test System: AMES SALMONELLA TYPHIMURIUM, Strain/Indicator: TA104, Metabolic Activation: NONE, Method: PREINCUBATION)?
Answer: inactive; negative

Question: What about the mutagenic call (Test System: AMES SALMONELLA TYPHIMURIUM, Strain/Indicator: TA104, Metabolic Activation: RAT LIVER S-9, AROCLOR 1254, Method: PREINCUBATION) of the same compound?
Answer: inactive; negative

Question: And the mutagenic call (Test System: AMES SALMONELLA TYPHIMURIUM, Strain/Indicator: TA104, Metabolic Activation: RAT, LIVER, S-9, AROCLOR 1254 (10%), Method: PREINCUBATION)?
Answer: inactive; negative

Question: What about the mutagenic call (Test System: AMES SALMONELLA TYPHIMURIUM, Strain/Indicator: TA1535, Metabolic Activation: HAMSTER, LIVER, S-9, AROCLOR 1254 (10%), Method: PREINCUBATION) of the same compound?
Answer: inactive; negative

Question: And the mutagenic call (Test System: AMES SALMONELLA TYPHIMURIUM, Strain/Indicator: TA1535, Metabolic Activation: NONE, Method: PREINCUBATION)?
Answer: inactive; negative

Question: And the mutagenic call (Test System: AMES SALMONELLA TYPHIMURIUM, Strain/Indicator: TA1535, Metabolic Activation: RAT LIVER S-9, PHENOBARBITAL AND BETA-NAPHTHOFLAVONE, Method: PREINCUBATION)?
Answer: inactive; negative

Question: What about the mutagenic call (Test System: AMES SALMONELLA TYPHIMURIUM, Strain/Indicator: TA1535, Metabolic Activation: RAT, LIVER, S-9, AROCLOR 1254 (10%), Method: PREINCUBATION) of the same compound?
Answer: inactive; negative

Question: What about the mutagenic call (Test System: AMES SALMONELLA TYPHIMURIUM, Strain/Indicator: TA1537, Metabolic Activation: HAMSTER, LIVER, S-9, AROCLOR 1254 (10%), Method: PREINCUBATION) of the same compound?
Answer: inactive; negative

Question: And the mutagenic call (Test System: AMES SALMONELLA TYPHIMURIUM, Strain/Indicator: TA1537, Metabolic Activation: NONE, Method: FLUCTUATION (MICROTITER))?
Answer: inactive; negative

Question: And the mutagenic call (Test System: AMES SALMONELLA TYPHIMURIUM, Strain/Indicator: TA1537, Metabolic Activation: NONE, Method: PREINCUBATION)?
Answer: inactive; negative

Question: And the mutagenic call (Test System: AMES SALMONELLA TYPHIMURIUM, Strain/Indicator: TA1537, Metabolic Activation: RAT LIVER S-9, AROCLOR 1254, Method: FLUCTUATION (MICROTITER))?
Answer: inactive; negative

Question: What about the mutagenic call (Test System: AMES SALMONELLA TYPHIMURIUM, Strain/Indicator: TA1537, Metabolic Activation: RAT LIVER S-9, PHENOBARBITAL AND BETA-NAPHTHOFLAVONE, Method: PREINCUBATION) of the same compound?
Answer: inactive; negative

Question: What about the mutagenic call (Test System: AMES SALMONELLA TYPHIMURIUM, Strain/Indicator: TA1537, Metabolic Activation: RAT, LIVER, S-9, AROCLOR 1254 (10%), Method: PREINCUBATION) of the same compound?
Answer: inactive; negative

Question: And the mutagenic call (Test System: AMES SALMONELLA TYPHIMURIUM, Strain/Indicator: TA7001, Metabolic Activation: NONE, Method: FLUCTUATION (MICROTITER))?
Answer: inactive; negative

Question: What about the mutagenic call (Test System: AMES SALMONELLA TYPHIMURIUM, Strain/Indicator: TA7001, Metabolic Activation: RAT LIVER S-9, AROCLOR 1254, Method: FLUCTUATION (MICROTITER)) of the same compound?
Answer: inactive; negative

Question: What about the mutagenic call (Test System: AMES SALMONELLA TYPHIMURIUM, Strain/Indicator: TA7002, Metabolic Activation: NONE, Method: FLUCTUATION (MICROTITER)) of the same compound?
Answer: inactive; negative

Question: What about the mutagenic call (Test System: AMES SALMONELLA TYPHIMURIUM, Strain/Indicator: TA7002, Metabolic Activation: RAT LIVER S-9, AROCLOR 1254, Method: FLUCTUATION (MICROTITER)) of the same compound?
Answer: inactive; negative

Question: And the mutagenic call (Test System: AMES SALMONELLA TYPHIMURIUM, Strain/Indicator: TA7003, Metabolic Activation: NONE, Method: FLUCTUATION (MICROTITER))?
Answer: inactive; negative

Question: And the mutagenic call (Test System: AMES SALMONELLA TYPHIMURIUM, Strain/Indicator: TA7003, Metabolic Activation: RAT LIVER S-9, AROCLOR 1254, Method: FLUCTUATION (MICROTITER))?
Answer: inactive; negative

Question: And the mutagenic call (Test System: AMES SALMONELLA TYPHIMURIUM, Strain/Indicator: TA7004, Metabolic Activation: NONE, Method: FLUCTUATION (MICROTITER))?
Answer: inactive; negative

Question: What about the mutagenic call (Test System: AMES SALMONELLA TYPHIMURIUM, Strain/Indicator: TA7004, Metabolic Activation: RAT LIVER S-9, AROCLOR 1254, Method: FLUCTUATION (MICROTITER)) of the same compound?
Answer: inactive; negative

Question: What about the mutagenic call (Test System: AMES SALMONELLA TYPHIMURIUM, Strain/Indicator: TA7005, Metabolic Activation: NONE, Method: FLUCTUATION (MICROTITER)) of the same compound?
Answer: inactive; negative

Question: What about the mutagenic call (Test System: AMES SALMONELLA TYPHIMURIUM, Strain/Indicator: TA7005, Metabolic Activation: RAT LIVER S-9, AROCLOR 1254, Method: FLUCTUATION (MICROTITER)) of the same compound?
Answer: active; positive

Question: And the mutagenic call (Test System: AMES SALMONELLA TYPHIMURIUM, Strain/Indicator: TA7006, Metabolic Activation: NONE, Method: FLUCTUATION (MICROTITER))?
Answer: inactive; negative

Question: And the mutagenic call (Test System: AMES SALMONELLA TYPHIMURIUM, Strain/Indicator: TA7006, Metabolic Activation: RAT LIVER S-9, AROCLOR 1254, Method: FLUCTUATION (MICROTITER))?
Answer: inactive; negative

Question: And the mutagenic call (Test System: E.COLI, Strain/Indicator: WP2UVRA/PKM101, Metabolic Activation: NONE, Method: PREINCUBATION)?
Answer: inactive; negative

Question: What about the mutagenic call (Test System: E.COLI, Strain/Indicator: WP2UVRA/PKM101, Metabolic Activation: RAT LIVER S-9, PHENOBARBITAL AND BETA-NAPHTHOFLAVONE, Method: PREINCUBATION) of the same compound?
Answer: inactive; negative

Question: What about the mutagenic call (Test System: MOUSE LYMPHOMA, Strain/Indicator: L5178Y (TK+/TK-), Metabolic Activation: NONE, Method: SUSPENSION/PLATE) of the same compound?
Answer: active; positive

Question: For `O=C1NC(=O)C(C(Cl)Cl)=C1Cl`, which mutagenic call (Test System: AMES SALMONELLA TYPHIMURIUM, Strain/Indicator: TA100, Metabolic Activation: NONE, Method: STANDARD PLATE) is on record?
Answer: active; positive
